26 molecules from ChEMBL document CHEMBL1138956, “Synthesis and in vitro anti-tumor activity of N-{1-[(3-thioxo-5,6-dihydroimidazo[2,1-c][1,2,4]thiadiazol-7-ylthio)thiocarbonyl]-2-imidazolidene}arylsulfonamides” (2006) can be followed below.

Calls of active or inactive are those of the source. No cut-off for these calls is given here.

One experiment concerns UO-31. Put plainly: Antitumor activity against UO31 cell line. To be noted: Homo sapiens. Format: functional, cell-based.
A further experiment deals with SF-539. Description: Antitumor activity against SF539 cell line. Format: functional, cell-based. To be noted: Homo sapiens.
The subject of a further experiment is KYSE-510. Put plainly: Antitumor activity against KYSE510 cell line after 96 hrs using crystal violet. Type of experiment: functional. As to conditions: Homo sapiens, KYSE-510, 96 h.
The subject of another experiment is SK-OV-3. Put plainly: Antitumor activity against SKOV3 cell line. Type of experiment: functional, cell-based. To be noted: Homo sapiens.
The test system of another experiment is LOX IMVI. Put plainly: Antitumor activity against LOXIMVI cell line. Format: functional, cell-based. As to conditions: Homo sapiens.
For a further experiment, the system named is RXF 393. Description: Antitumor activity against RXF393 cell line. To be noted: Homo sapiens. Type of experiment: functional, cell-based.
A further experiment deals with CCRF-CEM. Put plainly: Antitumor activity against CCRF-CEM cell line. To be noted: Homo sapiens. Format: functional, cell-based.
Another experiment relates to ACHN. Description: Antitumor activity against ACHN cell line. Type of experiment: functional, cell-based. As to conditions: Homo sapiens.
The subject of a further experiment is RPMI-8226. Description: Antitumor activity against RPMI8226 cell line. Format: functional, cell-based. As to conditions: Homo sapiens.
The next experiment has as its system HOP-92. Description: Antitumor activity against HOP92 cell line. To be noted: Homo sapiens. Format: functional, cell-based.
Another experiment has as its system HL-60. Description: Antitumor activity against HL60(TB) cell line. Type of experiment: functional, cell-based. As to conditions: Homo sapiens.
The next experiment has as its system SR. Put plainly: Antitumor activity against SR cell line. Format: functional, cell-based. To be noted: Homo sapiens.
The test system of another experiment is 5637. Description: Antitumor activity against 5637 cell line after 96 hrs using crystal violet. Type of experiment: functional. To be noted: Homo sapiens, 5637, 96 h.

With `O=S(=O)(NC1=NCCN1C(=S)SN1CCn2c1nsc2=S)c1ccc(Cl)cc1`, the result in the experiment on UO-31 and in the experiment on SF-539 was Active. In the experiment on KYSE-510, this molecule yielded a GI50 not below 20 µM. Turning to `Cc1ccc(S(=O)(=O)NC2=NCCN2C(=S)SN2CCn3c2nsc3=S)cc1`, the outcome in the experiment on SK-OV-3 and with LOX IMVI was Active. The GI50 in the experiment on KYSE-510 is not below 20 µM. `O=S(=O)(NC1=NCCN1C(=S)SN1CCn2c1nsc2=S)c1ccc(Cl)cc1Cl` returned a GI50 in the experiment with KYSE-510 not below 20 µM.

In the experiment on KYSE-510, `COc1ccc(OC)c(S(=O)(=O)NC2=NCCN2C(=S)SN2CCn3c2nsc3=S)c1` registered a GI50 not below 20 µM.

Molecule `O=S(=O)(NC1=NCCN1C(=S)SN1CCn2c1nsc2=S)c1ccc2ccccc2c1` had a GI50 in the experiment on KYSE-510 not below 20 µM. Take `O=S(=O)(NC1=NCCN1C(=S)SN1CCn2c1nsc2=S)c1cccc(Cl)c1`: the outcome in the experiment with RXF 393 and in the experiment on CCRF-CEM was Active. In addition, in the experiment with KYSE-510, the GI50 was not below 20 µM.

In the experiment with KYSE-510, `O=S(=O)(NC1=NCCN1C(=S)SN1CCn2c1nsc2=S)c1ccc(-c2ccccc2)cc1` came in with a GI50 not below 20 µM. In the experiment on KYSE-510, `O=S(=O)(NC1=NCCN1C(=S)SN1CCn2c1nsc2=S)c1ccc(F)c(Cl)c1` yielded a GI50 not below 20 µM. Take `COc1cccc(S(=O)(=O)NC2=NCCN2C(=S)SN2CCn3c2nsc3=S)c1`: the result in the experiment with LOX IMVI and in the experiment with ACHN was Active. This molecule also returned a GI50 in the experiment with KYSE-510 not below 20 µM.

For `O=S(=O)(NC1=NCCN1C(=S)SN1CCn2c1nsc2=S)c1cccc(OC(F)(F)F)c1`, the outcome in the experiment on CCRF-CEM and in the experiment on RPMI-8226 was Active. The GI50 with KYSE-510 is not below 20 µM.

As to `Cc1cc(C)c(S(=O)(=O)NC2=NCCN2C(=S)SN2CCn3c2nsc3=S)c(C)c1`, the GI50 with KYSE-510 was not below 20 µM. `O=S(=O)(NC1=NCCN1C(=S)SN1CCn2c1nsc2=S)c1cc(Cl)cc(Cl)c1` displayed a GI50 with KYSE-510 not below 20 µM. With `O=S(=O)(NC1=NCCN1C(=S)SN1CCn2c1nsc2=S)c1ccc(Cl)c(Cl)c1`, in the experiment on KYSE-510, the GI50 is not below 20 µM.

With `O=S(=O)(NC1=NCCN1C(=S)SN1CCn2c1nsc2=S)c1ccc(Br)cc1`, the result in the experiment with RPMI-8226 and in the experiment with HOP-92 was Active. For the same molecule, the GI50 in the experiment on KYSE-510 is not below 20 µM. With `O=S(=O)(NC1=NCCN1C(=S)SN1CCn2c1nsc2=S)c1ccccc1Cl`, the outcome in the experiment on CCRF-CEM and in the experiment with HL-60 was Active. The GI50 in the experiment on KYSE-510 was not below 20 µM. For `COc1ccc(S(=O)(=O)NC2=NCCN2C(=S)SN2CCn3c2nsc3=S)cc1`, the outcome in the experiment with UO-31 and in the experiment on RXF 393 was Active. For the same molecule, in the experiment on KYSE-510, the GI50 is not below 20 µM. Regarding `O=S(=O)(NC1=NCCN1C(=S)SN1CCn2c1nsc2=S)c1ccc(C(F)(F)F)cc1`, the GI50 in the experiment on KYSE-510 was not below 20 µM. On to `COc1ccc(S(=O)(=O)NC2=NCCN2C(=S)SN2CCn3c2nsc3=S)cc1OC`, for which the result with RXF 393 was Active. In the experiment with KYSE-510, this molecule returned a GI50 not below 20 µM.

In the experiment on KYSE-510, `O=S(=O)(NC1=NCCN1C(=S)SN1CCn2c1nsc2=S)c1ccc(Cl)c(Cl)c1Cl` came in with a GI50 not below 20 µM. In the experiment with KYSE-510, `O=S(=O)(NC1=NCCN1C(=S)SN1CCn2c1nsc2=S)c1ccccc1` had a 50% growth inhibitory concentration (GI50) not below 20 µM. Regarding `O=S(=O)(NC1=NCCN1C(=S)SN1CCn2c1nsc2=S)c1ccc(OC(F)(F)F)cc1`, the result in the experiment with SR and in the experiment with SF-539 was Active. In the experiment on KYSE-510, this molecule registered a GI50 not below 20 µM.

Consider `O=S(=O)(NC1=NCCN1C(=S)SN1CCn2c1nsc2=S)c1cccc2ccccc12`, for which the result in the experiment on CCRF-CEM and in the experiment with RPMI-8226 was Active. Moreover, in the experiment with KYSE-510, the GI50 was not below 20 µM. With `O=[N+]([O-])c1ccc(S(=O)(=O)NC2=NCCN2C(=S)SN2CCn3c2nsc3=S)cc1`, the GI50 was not below 20 µM in the experiment on KYSE-510 and 3.67 µM in the experiment on 5637. For `O=S(=O)(NC1=NCCN1C(=S)SN1CCn2c1nsc2=S)c1ccc(Oc2ccccc2)cc1`, the result in the experiment on SR and in the experiment with HL-60 was Active. Besides, the GI50 with KYSE-510 is not below 20 µM.

For `COc1cc(C)ccc1S(=O)(=O)NC1=NCCN1C(=S)SN1CCn2c1nsc2=S`, the GI50 in the experiment with KYSE-510 was not below 20 µM. As for `CC(=O)Nc1ccc(S(=O)(=O)NC2=NCCN2C(=S)SN2CCn3c2nsc3=S)cc1`, in the experiment with KYSE-510, the GI50 was not below 20 µM.

As usually defined, the GI50 is the concentration that inhibits growth by half.
